Measured values reported in patent US9556190B2, “Piperidinyloxy lactone orexin receptor antagonists” (MERCK SHARP & DOHME CORP., priority 2013, dated 2017).

Key:
[1] = target: human orexin-2 receptor (Homo sapiens (Human), UniProt O43614); experiment: FLIPR Ca2+ Flux Assay, CHO cells expressing orexin-2 receptor; assay type: cell-based; conditions: 70 pM Ala-6,12 orexin-A agonist, read-out: hOX2R FLIPR IC50
Method: The utility of the compounds in accordance with the present invention as orexin receptor OX1R and/or OX2R antagonists may be readily determined without undue experimentation by methodology well known in the art, including the “FLIPR Ca^2+ Flux Assay” (Okumura et al., Biochem. Biophys. Res. Comm. 280:976-981, 2001). In a typical experiment the OX1 and OX2 receptor antagonistic activity of the compounds of the present invention was determined in accordance with the following experimental method. For intracellular calcium measurements, Chinese hamster ovary (CHO) cells expressing the rat orexin-1 receptor or the human orexin-2 receptor, are grown in Iscove's modified DMEM containing 2 mM L-glutamine, […], 1% hypoxanthine-thymidine supplement, 100 U/ml penicillin, 100 μg/ml streptomycin and 10% heat-inactivated fetal calf serum (FCS). The cells are seeded at 20,000 cells/well into Becton-Dickinson black 384-well clear bottom sterile plates coated with poly-D-lysine. All reagents were from GIBCO-Invitrogen Corp. The seeded plates are incubated overnight at 37° C. and 5% CO2. Ala-6,12 human orexin-A as the agonist is prepared as a 1 mM stock solution in 1% bovine serum albumin (BSA) and diluted in assay buffer (HBSS containing 20 mM HEPES, 0.1% BSA and 2.5 mM probenecid, pH7.4) for use in the assay at a final concentration of 70 pM. Test compounds are prepared as 10 mM stock solution in DMSO, then diluted in 384-well plates, first in DMSO, then assay buffer. On the day of the assay, cells are washed 3 times with 100 μl assay buffer and then incubated for 60 min (37° C., 5% CO2) in 60 μl assay buffer containing 1 μM Fluo-4AM ester, 0.02% pluronic acid, and 1% BSA. The dye loading solution is then aspirated and cells are washed 3 times with 100 μl assay buffer. 30 μl of that same buffer is left in each well. Within the Fluorescent Imaging Plate Reader (FLIPR, Molecular Devices), test compounds are added to the plate in a volume of 25 μl, incubated for 5 min and finally 25 μl of agonist is added. Fluorescence is measured for each well at 1 second intervals for 5 minutes and the height of each fluorescence peak is compared to the height of the fluorescence peak induced by 70 pM Ala-6,12 orexin-A with buffer in place of antagonist. For each antagonist, IC50 value (the concentration of compound needed to inhibit 50% of the agonist response) is determined. Alternatively, compound potency can be assessed by a radioligand binding assay (described in Bergman et. al. Bioorg. Med. Chem. Lett. 2008, 18, 1425-1430) in which the inhibition constant (Ki) is determined in membranes prepared from CHO cells expressing either the OX1 or OX2 receptor. The intrinsic orexin receptor antagonist activity of a compound which may be used in the present invention may be determined by these assays.

[2] = target: hOX1R (Homo sapiens, UniProt O43613); experiment: FLIPR Ca2+ Flux Assay, CHO cells expressing orexin-1 receptor; assay type: cell-based; conditions: 70 pM Ala-6,12 orexin-A agonist

Chain of human orexin-2 receptor (O43614 whole entry): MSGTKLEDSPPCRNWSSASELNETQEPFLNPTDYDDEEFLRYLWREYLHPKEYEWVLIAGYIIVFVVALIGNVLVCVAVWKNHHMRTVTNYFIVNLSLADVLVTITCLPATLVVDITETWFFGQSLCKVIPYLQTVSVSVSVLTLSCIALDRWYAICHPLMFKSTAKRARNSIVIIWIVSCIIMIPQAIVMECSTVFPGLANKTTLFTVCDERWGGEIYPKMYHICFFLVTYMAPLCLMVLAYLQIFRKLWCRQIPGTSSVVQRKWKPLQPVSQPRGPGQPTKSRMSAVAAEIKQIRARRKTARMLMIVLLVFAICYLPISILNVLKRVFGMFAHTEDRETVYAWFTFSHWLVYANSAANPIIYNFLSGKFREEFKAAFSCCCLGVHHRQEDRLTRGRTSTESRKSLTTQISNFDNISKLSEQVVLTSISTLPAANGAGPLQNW

Row | Compound | IC50 [1] | IC50 [2]
1 | C[C@@H]1CC[C@@H](N(C)c2nccc3c2C(=O)OC3(C)C)CN1C(=O)c1ccccc1-n1ncnn1 [Example 45, 1,1-Dimethyl-4-{methyl[(3R,6R)-6-methyl-1-{[2-(2H-tetrazol-2-yl)phenyl]carbonyl}piperidin-3-yl]amino}furo[3,4-c]pyridin-3(1H)-one] | 127 nM | 9330 nM
2 | COc1ccc(C(=O)N2C[C@H](Oc3nccc4c3C(=O)OC4(C)C)CC[C@H]2C)c(-n2nccn2)c1 [Example 11, 4-{[(3R,6R)-1-{[4-methoxy-2-(2H-1,2,3-triazol-2-yl)phenyl]carbonyl}-6-methylpiperidin-3-yl]oxy}-1,1-dimethylfuro[3,4-c]pyridin-3(1H)-one] | 147 nM | 10000 nM
3 | C[C@@H]1OC(=O)c2c1ccnc2N[C@@H]1CC[C@@H](C)N(C(=O)c2ccccc2-n2nccn2)C1 [Example 46, (1S)-1-methyl-4-{[(3R,6R)-6-methyl-1-{[2-(2H-1,2,3-triazol-2-yl)phenyl]carbonyl}piperidin-3-yl]amino}furo[3,4-c]pyridin-3(1H)-one] | 28 nM | ≥ 10000 nM
4 | Cc1nc(-c2c(F)cccc2C(=O)N2C[C@H](Oc3nccc4c3C(=O)OC4(C)C)CC[C@H]2C)no1 [Example 16, 4-{[(3R,6R)-1-{[3-fluoro-2-(5-methyl-1,2,4-oxadiazol-3-yl)phenyl]carbonyl}-6-methylpiperidin-3-yl]oxy}-1,1-dimethylfuro[3,4-c]pyridin-3(1H)-one] | 90 nM | 10000 nM
5 | Cc1cccc(C(=O)N2C[C@H](Oc3nccc4c3C(=O)OC4(C)C)CC[C@H]2C)c1-n1nccn1 [Example 8, 1,1-dimethyl-4-{[(3R,6R)-6-methyl-1-{[3-methyl-2-(2H-1,2,3-triazol-2-yl)phenyl]carbonyl}piperidin-3-yl]oxy}furo[3,4-c]pyridin-3(1H)-one] | 43 nM | 3090 nM
6 | C[C@@H]1CC[C@@H](Nc2nccc3c2C(=O)OC3(C)C)CN1C(=O)c1ccsc1-n1nccn1 [Example 43, 1,1-dimethyl-4-{[(3R,6R)-6-methyl-1-{[2-(2H-1,2,3-triazol-2-yl)thiophen-3-yl]-carbonyl}piperidin-3-yl]amino}-furo[3,4-c]pyridin-3(1H)-one] | 19 nM | 10000 nM
7 | Cc1noc(-c2cccc(F)c2C(=O)N2C[C@H](Oc3nccc4c3C(=O)OC4(C)C)CC[C@H]2C)n1 [Example 17, 4-{[(3R,6R)-1-{[2-fluoro-6-(3-methyl-1,2,4-oxadiazol-5-yl)phenyl]carbonyl}-6-methylpiperidin-3-yl]oxy}-1,1-dimethylfuro[3,4-c]pyridin-3(1H)-one] | 102 nM | 10000 nM
8 | C[C@@H]1CC[C@@H](Oc2nccc3c2COC3=O)CN1C(=O)c1ccccc1-n1nccn1 [Example 28, 4-{[(3R,6R)-6-Methyl-1-{[2-(2H-1,2,3-triazol-2-yl)phenyl]carbonyl}piperidin-3-yl]oxy}furo[3,4-c]pyridin-1(3H)-one] | 16 nM | 4670 nM
9 | C[C@@H]1CC[C@@H](Oc2nccc3c2C(=O)OC3(C)C)CN1C(=O)c1cc(F)ccc1-c1ncccn1 [Example 24, 4-({(3R,6R)-1-[(5-fluoro-2-pyrimidin-2-ylphenyl)carbonyl]-6-methylpiperidin-3-yl}oxy)-1,1-dimethylfuro[3,4-c]pyridin-3(1H)-one] | 72 nM | 10000 nM
10 | C[C@@H]1CC[C@@H](Oc2nccc3c2C(=O)OC3(C)C)CN1C(=O)c1ccccc1-n1nccn1 [Example 1, 1,1-Dimethyl-4-{[(3R,6R)-6-methyl-1-{[2-(2H-1,2,3-triazol-2-yl)phenyl]carbonyl}piperidin-3-yl]oxy}furo[3,4-c]pyridin-3(1H)-one] | 20 nM | 8290 nM
11 | COc1ccc(C(=O)N2C[C@H](Oc3nccc4c3C(=O)OC4(C)C)CC[C@H]2C)c(-n2nccn2)n1 [Example 12, 4-{[(3R,6R)-1-{[6-methoxy-2-(2H-1,2,3-triazol-2-yl)pyridin-3-yl]carbonyl}-6-methylpiperidin-3-yl]oxy}-1,1-dimethylfuro[3,4-c]pyridin-3(1H)-one] | 195 nM | 10000 nM
12 | C[C@@H]1CC[C@@H](Oc2cccc3c2C(=O)OC3(C)C)CN1C(=O)c1ccccc1-n1nccn1 [Example 38, 3,3-Dimethyl-7-{[(3R,6R)-6-methyl-1-{[2-(2H-1,2,3-triazol-2-yl)phenyl]carbonyl}piperidin-3-yl]oxy}-2-benzofuran-1(3H)-one] | 169 nM | 10000 nM
13 | C[C@@H]1CC[C@@H](Oc2nccc3c2C(=O)OC3(C)C)CN1C(=O)c1ccccc1-c1ncccn1 [Example 22, 1,1-Dimethyl-4-{[(3R,6R)-6-methyl-1-{[2-(pyrimidin-2-yl)phenyl]carbonyl}piperidin-3-yl]oxy}furo[3,4-c]pyridin-3(1H)-one] | 76 nM | 3260 nM
14 | C[C@@H]1CC[C@@H](Oc2nccc3c2COC3=O)CN1C(=O)c1cscc1-n1nccn1 [Example 30, 4-{[(3R,6R)-6-methyl-1-{[4-(2H-1,2,3-triazol-2-yl)-thiophen-3-yl]car-bonyl}piperidin-3-yl]oxy}furo[3,4-c]pyridin-1(3H)-one] | 26 nM | 10000 nM
15 | C[C@@H]1CC[C@@H](Nc2nccc3c2C(=O)OC3(C)C)CN1C(=O)c1ccccc1-c1ncccn1 [Example 42, 1,1-dimethyl-4-({(3R,6R)-6-methyl-1-[(2-pyrimidin-2-ylphenyl)carbonyl]-piperidin-3-yl}amino)furo[3,4-c]pyridin-3(1H)-one] | 26 nM | 2860 nM
16 | C[C@@H]1CC[C@@H](Oc2nccc3c2COC3=O)CN1C(=O)c1ccsc1-c1ncccn1 [Example 37, 4-({(3R,6R)-6-methyl-1-[(2-pyrimidin-2-ylthiophen-3-yl)carbonyl]piperidin-3-yl}oxy)furo[3,4-c]pyridin-1(3H)-one] | 27 nM | 6160 nM
17 | Cc1noc(-c2ccc(F)cc2C(=O)N2C[C@H](Oc3nccc4c3C(=O)OC4(C)C)CC[C@H]2C)n1 [Example 18, 4-{[(3R,6R)-1-{[5-fluoro-2-(3-methyl-1,2,4-oxadiazol-5-yl)phenyl]carbonyl}-6-methylpiperidin-3-yl]oxy}-1,1-dimethylfuro[3,4-c]pyridin-3(1H)-one] | 90 nM | 10000 nM
18 | C[C@@H]1CC[C@@H](Oc2nccc3c2C(=O)OC3(C)C)CN1C(=O)c1ccc(F)cc1-c1ncccn1 [Example 23, 4-({(3R,6R)-1-[(4-fluoro-2-pyrimidin-2-ylphenyl)carbonyl]-6-methylpiperidin-3-yl}oxy)-1,1-dimethylfuro[3,4-c]pyridin-3(1H)-one] | 420 nM | 10000 nM
19 | C[C@@H]1CC[C@@H](Nc2nccc3c2C(=O)OC3(C)C)CN1C(=O)c1ccccc1-n1nccn1 [Example 39, 1,1-Dimethyl-4-{[(3R,6R)-6-methyl-1-{[2-(2H-1,2,3-triazol-2-yl)phenyl]carbonyl}piperidin-3-yl]amino}furo[3,4-c]pyridin-3(1H)-one] | 49 nM | 5880 nM
20 | C[C@@H]1CC[C@@H](Nc2nccc3c2C(=O)OC3)CN1C(=O)c1ccccc1-n1nccn1 [Example 40, 4-{[(3R,6R)-6-Methyl-1-{[2-(2H-1,2,3-triazol-2-yl)phenyl]carbonyl}piperidin-3-yl]amino}furo[3,4-c]pyridin-3(1H)-one] | 136 nM | 10000 nM
21 | Cc1nc(-c2cc(F)ccc2C(=O)N2C[C@H](Oc3nccc4c3C(=O)OC4(C)C)CC[C@H]2C)no1 [Example 15, 4-{[(3R,6R)-1-{[4-fluoro-2-(5-methyl-1,2,4-oxadiazol-3-yl)phenyl]carbonyl}-6-methylpiperidin-3-yl]oxy}-1,1-dimethylfuro[3,4-c]pyridin-3(1H)-one] | 232 nM | 10000 nM
22 | Cc1nc(-c2cccc(F)c2C(=O)N2C[C@H](Oc3nccc4c3C(=O)OC4(C)C)CC[C@H]2C)no1 [Example 13, 4-{[(3R,6R)-1-{[2-fluoro-6-(5-methyl-1,2,4-oxadiazol-3-yl)phenyl]carbonyl}-6-methylpiperidin-3-yl]oxy}-1,1-dimethylfuro[3,4-c]pyridin-3(1H)-one] | 65 nM | ≥ 10000 nM
